In ChEMBL document CHEMBL1201862, “PubChem BioAssay data set” (2004):
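Where inhibition never reached the appropriate level, the endpoint shown equals the highest concentration tested. Otherwise, values were interpolated linearly from a five-concentration, 48-hour dose response in 96-well plates. GI50 marks 50% less growth.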 Active and inactive are the calls of the source. No stated cut-off is given here; in the data, active = GI50 up to about 1.1 µM and inactive = higher.

How the values were obtained:
Assay in all cases: DTP human tumour cell line panel, 48 h
[1] = system: UACC-257
[2] = system: A498
[3] = system: MOLT-4
[4] = system: HL-60
[5] = system: UACC-62
[6] = system: OVCAR-4
[7] = system: SF-539
[8] = system: CAKI-1
[9] = system: SF-295
[10] = system: RXF 393
[11] = system: HOP-62
[12] = system: NCI-H460
[13] = system: U-251
[14] = system: SK-OV-3
[15] = system: RPMI-8226
[16] = system: MDA-MB-231
[17] = system: SNB-19
[18] = system: MCF7

Measured: GI50

CCCC/C=C1\CCC(C)(CN(C)C)C1=O (stereo not given)
inactive: [1] > 100 µM | [2] > 100 µM | [3] > 100 µM | [4] 55.5 µM | [5] > 100 µM | [6] > 100 µM | [7] > 100 µM | [8] > 100 µM | [9] > 100 µM | [10] 46.5 µM | [11] > 100 µM | [12] > 100 µM | [13] > 100 µM

Cn1c2ccccc2n2c3ncccc3c(=O)c(C#N)c12
inactive: [14] 17.3 µM | [1] 26.5 µM | [15] > 100 µM | [2] 10.4 µM | [3] 3.04 µM | [4] 2.09 µM | [16] 17.9 µM | [5] 8.41 µM | [6] 30.7 µM | [17] 8.28 µM | [8] 5.31 µM | [9] 7.69 µM | [10] 16.9 µM | [11] 5.18 µM | [12] 2.46 µM | [18] 3.81 µM | [13] 6.38 µM

CN1C(NCCO)=NS(=O)(=O)c2ccccc21
inactive: [14] > 100 µM | [1] > 100 µM | [2] > 100 µM | [3] > 100 µM | [4] > 100 µM | [16] > 100 µM | [5] > 100 µM | [6] > 100 µM | [7] > 100 µM | [17] > 100 µM | [8] > 100 µM | [9] > 100 µM | [10] > 100 µM | [11] > 100 µM | [12] > 100 µM | [18] > 100 µM | [13] > 100 µM

CCCCCCCCCCCCCCCCOC(=O)c1cc(O)cc(C(=O)OCCCCCCCCCCCCCCCC)c1
inactive: [14] > 100 µM | [1] > 100 µM | [15] > 100 µM | [2] > 100 µM | [3] > 100 µM | [4] > 100 µM | [5] > 100 µM | [6] > 100 µM | [17] > 100 µM | [8] > 100 µM | [9] > 100 µM | [10] > 100 µM | [12] > 100 µM | [13] > 100 µM

Cc1ccc(S(=O)(=O)Nn2c(S)c(C#N)c(-c3ccc(Cl)cc3)c(C#N)c2=O)cc1
inactive: [14] 61 µM | [1] 45.3 µM | [15] 26.2 µM | [2] 26.5 µM | [3] 24.7 µM | [4] 23 µM | [16] 36.2 µM | [5] 27.7 µM | [6] 15.1 µM | [7] 19.6 µM | [17] 35.4 µM | [8] 32.7 µM | [9] 32.9 µM | [10] 32.3 µM | [12] 17 µM | [18] 44.6 µM | [13] 22.2 µM

Cc1c(C)c2cc3c(=O)ccoc3c(C)c2oc1=O
inactive: [14] 57.1 µM | [1] > 100 µM | [15] > 100 µM | [2] > 100 µM | [3] 20.9 µM | [4] 50.2 µM | [5] 21.9 µM | [7] 85.5 µM | [17] 48.6 µM | [9] > 100 µM | [10] 25 µM | [11] > 100 µM | [12] > 100 µM | [13] > 100 µM

COc1ccccc1NC(=S)N/N=C/c1c(C)n(C)n(-c2ccccc2)c1=O
inactive: [14] 35.3 µM | [1] > 100 µM | [15] > 100 µM | [2] 71 µM | [3] 41.5 µM | [4] > 100 µM | [16] > 100 µM | [5] > 100 µM | [6] > 100 µM | [7] 49.9 µM | [17] > 100 µM | [8] > 100 µM | [9] 59.3 µM | [10] 34.9 µM | [11] 53.3 µM | [12] > 100 µM | [18] > 100 µM | [13] > 100 µM

Cc1ccnc(NC(=S)Nc2ccc([N+](=O)[O-])cc2)c1
inactive: [14] 37.9 µM | [1] > 100 µM | [15] > 100 µM | [3] > 100 µM | [4] > 100 µM | [5] > 100 µM | [6] > 100 µM | [7] 26.4 µM | [17] > 100 µM | [9] 62.8 µM | [10] > 100 µM | [11] 78 µM | [12] 80.5 µM | [18] > 100 µM | [13] 49 µM

CCOc1ccc(NC(=O)CCc2nnc(SC)o2)cc1
inactive: [14] > 100 µM | [1] > 100 µM | [2] > 100 µM | [3] > 100 µM | [4] > 100 µM | [5] > 100 µM | [6] > 100 µM | [7] > 100 µM | [17] > 100 µM | [8] > 100 µM | [9] > 100 µM | [10] > 100 µM | [11] > 100 µM | [12] > 100 µM | [13] > 100 µM

C/C(=N/NC(=O)C(N)=O)C(CC(C(=O)Nc1ccccc1C)/C(C)=N\NC(=O)C(N)=O)C(=O)Nc1ccccc1C (stereo not given)
inactive: [14] > 100 µM | [1] > 100 µM | [15] > 100 µM | [2] > 100 µM | [3] 75.9 µM | [4] > 100 µM | [6] > 100 µM | [7] > 100 µM | [17] > 100 µM | [8] > 100 µM | [9] > 100 µM | [10] > 100 µM | [11] > 100 µM | [12] > 100 µM | [13] > 100 µM

COC(=O)N/N=C(\C)c1c(O)cc(C)oc1=O
inactive: [14] > 100 µM | [1] > 100 µM | [2] > 100 µM | [3] 18.5 µM | [4] 45.2 µM | [5] 5.62 µM | [6] > 100 µM | [7] 14.7 µM | [17] > 100 µM | [9] 29.4 µM | [11] 36.2 µM | [12] 37.8 µM | [13] 28.8 µM

CCOC(=O)C1CCC(=O)N1C(=O)c1ccccc1 (stereo not given)
inactive: [1] > 100 µM | [15] > 100 µM | [2] > 100 µM | [3] > 100 µM | [4] > 100 µM | [16] > 100 µM | [5] 7.83 µM | [7] > 100 µM | [17] > 100 µM | [8] > 100 µM | [9] > 100 µM | [10] > 100 µM | [11] > 100 µM | [12] > 100 µM | [18] > 100 µM | [13] > 100 µM

O=C1CSC(c2ccccc2O)N1c1ccc(Oc2ccc(Cl)cc2)c(Cl)c1 (stereo not given)
inactive: [14] 21 µM | [1] 26.2 µM | [15] 19.8 µM | [3] 25.9 µM | [4] 16.6 µM | [16] 16.9 µM | [5] 16.4 µM | [6] 20.7 µM | [7] 15.7 µM | [17] 22 µM | [8] 23.3 µM | [9] 16.3 µM | [11] 18.2 µM | [12] 19.4 µM | [18] 26.6 µM | [13] 17.3 µM
